How the values were obtained:
Format in all cases: biochemical
Arabidopsis BioDAΔMTP = target: T1, Arabidopsis BioDAΔMTP (Arabidopsis thaliana, UniProt B0F481); test: BioDA enzyme activity with DMSO or herbicide in vitro (wild-type reference enzyme); settings: for % Inhibition relative to DMSO treatment: Arabidopsis BioDAΔMTP (Table 26)
T1 construct: with the predicted N-terminal mitochondrial transit peptide removed; 6xHis-tag (N); thrombin cleavage site (N); made in house; host or cells: E. coli BL21 (DE3) bioA
T1 sequence (B0F481 with tags, fused parts or gaps): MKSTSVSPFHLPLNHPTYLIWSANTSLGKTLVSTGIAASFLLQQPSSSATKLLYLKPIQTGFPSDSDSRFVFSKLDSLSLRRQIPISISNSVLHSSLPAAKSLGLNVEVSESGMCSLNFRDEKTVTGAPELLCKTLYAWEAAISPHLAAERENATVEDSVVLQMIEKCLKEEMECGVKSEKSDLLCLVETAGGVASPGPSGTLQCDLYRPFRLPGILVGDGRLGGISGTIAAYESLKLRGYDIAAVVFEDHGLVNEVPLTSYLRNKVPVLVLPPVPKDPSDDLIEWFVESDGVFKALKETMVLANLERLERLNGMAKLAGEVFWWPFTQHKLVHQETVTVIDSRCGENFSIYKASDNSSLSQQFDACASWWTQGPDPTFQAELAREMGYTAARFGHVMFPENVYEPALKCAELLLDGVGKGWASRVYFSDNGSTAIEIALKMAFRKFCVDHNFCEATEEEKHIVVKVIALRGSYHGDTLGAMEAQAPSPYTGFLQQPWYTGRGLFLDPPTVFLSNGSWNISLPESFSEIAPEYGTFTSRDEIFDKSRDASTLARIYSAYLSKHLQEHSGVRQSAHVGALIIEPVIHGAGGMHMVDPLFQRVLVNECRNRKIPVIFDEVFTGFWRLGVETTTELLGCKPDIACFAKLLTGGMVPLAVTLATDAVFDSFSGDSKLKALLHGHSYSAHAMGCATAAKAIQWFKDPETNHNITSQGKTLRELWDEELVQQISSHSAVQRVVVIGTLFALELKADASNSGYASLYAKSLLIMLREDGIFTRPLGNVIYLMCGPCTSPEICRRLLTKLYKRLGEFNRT

[1] = tested on: Ostreococcus tauri BioDA F332A; test: BioDA enzyme activity with DMSO or herbicide in vitro
Source text: (§1) A pet-24 plasmid containing a DNA sequence encoding each identified variant mutant of BIO3-BIO1 derived from Arabidopsis thaliana from example 5 above, as shown in Table 13 below and as shown in full in SEQ ID NOs: 15 to 155, codon-optimised for expression in E. coli, with an N-terminal 6×His-tag and thrombin cleavage site and under control of a T7 promoter, and was synthesised by Twist Bioscience, in a similar manner to SEQ ID NO:311. These plasmids were then expressed in E. coli BL21 (DE3) bioA with 50 μg/mL kanamycin and 25 μg/mL chloramphenicol selection. Overnight cultures grown at 37° C. were used to inoculate 8×500 mL AIM in shake flasks at a ratio of 1:100. Cultures were grown at 37° C., 200 rpm for 3.5 hours and then overnight at 20° C. Cells were harvested by centrifugation for 30 minutes at 10 000 g. Cells were stored at −80° C. until extraction. 30 g of cell pellet from was thawed in 120 mL of IMAC buffer A (20 mM HEPES pH7.5, 25 mM imidazole, 500 mM sodium chloride, 0.15 mM pyridoxal phosphate, 0.5 mM TCEP, 1× complete Protease Inhibitor Tablet (Roche)). The resuspension was passed through a cell disrupter at 18 000 PSI and centrifuged at 50 000 g for 25 minutes at 4° C. The His-tagged BIO3-BIO1 protein was purified from the extract supernatant on an AKTA avant chromatography system (Cytiva) using a HisTrap FF column and eluted in IMAC buffer B ((20 mM HEPES pH7.5, 500 mM imidazole, 500 mM sodium chloride, 0.15 mM pyridoxal phosphate, 0.5 mM TCEP) followed by SEC using a HiLoad 26/60 Superdex200 column in SEC buffer (25 mM HEPES pH7.5, 150 mM sodium chloride, 0.15 mM pyridoxal phosphate, 0.5 mM TCEP). Protein concentration was measured and calculated using the absorbance at 280 nm. Extracts were diluted 1 in 4 and 10 uL was analysed by SDS PAGE.
(§2) To measure BIO3-BIO1 mutant enzyme activity in the presence of herbicide, herbicides were incubated with 20 μL of enzyme mix (100 mM EPPS pH 8.6, 0.1 mM pyridoxal phosphate, 0.1 mg/mL BSA, 50 nM BIO3-BIO1 enzyme) for 10 minutes at 20° C. in a well of a 96-well half-area black plate, followed by the addition of 20 μL of substrate mix (final concentration of 100 mM EPPS pH 8.6, 0.1 mM pyridoxal phosphate, 0.1 mg/mL BSA, 100 μM spermidine, 20 μM KAPA, 100 mM NaCO3) and further incubation for 75 minutes at 20° C. The reaction was terminated by the addition of 50 μL of derivatisation mix (final concentration of 250 mM borate NaOH pH 9.4, 3.6 mM o-phthalaldehyde, 7 mM β-mercaptoethanol, 17% (v/v) ethanol, 3.6% (v/v) methanol). The fluorescent product produced by the reaction of DAPA with o-phthalaldehyde and 7 mM β-mercaptoethanol was measured at 470 nm after excitation at 410 nm. The percentage inhibition was calculated as the activity in the presence of one of three concentrations of each herbicide compound A to M (note that the compounds labelled as A to M are identified hereinabove in the relevant section of the description) as a percentage of the activity in DMSO (Table 12 and 13). The percentage activity versus WT was also calculated and is shown in Table 13 and 14 (NT indicates mutation not tested in table 13, note that these mutations are tested at different compound concentrations for compounds L, M and C, and the results are shown in table 14).
(§3) The activity of various wild-type BioDA and variant enzymes was also tested when treated with DMSO or herbicide in vitro.
(§4) Protein of Schizosaccharomyces japonicus BioDA (SEQ ID NO:13), Nannochloropsis gaditana BioDA (SEQ ID NO:3), Selaginella moellendorffii BioDA (SEQ ID NO:319), Quercus robur BioDA (SEQ ID NOA11), Ostreococcus tauri BioDA (SEQ ID NO:9), and the variants of Ostreococcus tauri BioDA A374D, F332A and P407A (SEQ ID Nos:321-323) was prepared using the method in Example 6. BioDA enzyme activity in the presence of herbicide or DMSO in vitro for each of the proteins was assayed according to the enzyme assay method above. The results are shown in Table 26 provided below in the “TABLES” section.

[2] = tested on: Ostreococcus tauri BioDA A374D; test: as above
Source text: as §1, §2, §3, §4

[3] = tested on: Ostreococcus tauri BioDA P407A; test: as above
Source text: as §1, §2, §3, §4

[4] = Arabidopsis (SEQ ID NO 294), spermidine in substrate mix, read-out: % Inhibition relative to DMSO treatment
[5] = 31 μM, Arabidopsis (SEQ ID NO 294), spermidine in substrate mix, read-out: % Inhibition relative to DMSO treatment
[6] = 500 μM, Arabidopsis (SEQ ID NO 294), spermidine in substrate mix, read-out: % Inhibition relative to DMSO treatment

Q: Which inhibition at 0.5 µM (Arabidopsis BioDAΔMTP; [4]) does the source give for CCn1c(C)c(-c2ccc(F)cc2F)c(=O)c(C(=O)O)c1-c1ccc(Cl)c(Cl)c1 [Compound C, 2-(3,4-dichlorophenyl)-5-(2,4-difluorophenyl)-1-ethyl-6-methyl-4-oxo-pyridine-3-carboxylic acid] here?
A: 53%

Q: For CCn1c(Cn2ccc(C(F)(F)F)n2)cc(=O)c(C(=O)O)c1-c1ccc(Cl)c(Cl)c1 [Compound L, 2-(3,4-dichlorophenyl)-1-ethyl-4-oxo-6-[[3-(trifluoromethyl)pyrazol-1-yl]methyl]pyridine-3-carboxylic acid], which “% Inhibition relative to DMSO treatment” value ([1]; 31 μM) is on record?
A: 4%

Q: And the “% Inhibition relative to DMSO treatment” value ([1]; 500 μM)?
A: 53%

Q: What about the “% Inhibition relative to DMSO treatment” value ([2]; 31 μM) of the same compound?
A: 98%

Q: What about the “% Inhibition relative to DMSO treatment” value ([2]; 500 μM) of the same compound?
A: 93%

Q: And the “% Inhibition relative to DMSO treatment” value ([3]; 31 μM)?
A: 58%

Q: And the “% Inhibition relative to DMSO treatment” value ([3]; 500 μM)?
A: 94%

Q: And the inhibition at 0.5 µM (Arabidopsis BioDAΔMTP; [4])?
A: 83%

Q: And the inhibition at 31 µM (Arabidopsis BioDAΔMTP; [5])?
A: 99%

Q: What about the “% Inhibition relative to DMSO treatment” value (Arabidopsis BioDAΔMTP; 31 μM) of the same compound?
A: 99%

Q: And the inhibition at 500 µM (Arabidopsis BioDAΔMTP; [6])?
A: 98%

Q: And the “% Inhibition relative to DMSO treatment” value (Arabidopsis BioDAΔMTP; 500 μM)?
A: 98%

Q: What does the source list for CC(O)C(N)CCCCC(=O)O.Cl (stereo not shown) [Compound B, [5-carboxy-1-(1-hydroxyethyl)pentyl]ammonium chloride]?
A: % Inhibition relative to DMSO treatment ([1]; 200 μM): 66%; % Inhibition relative to DMSO treatment ([2]; 200 μM): 95%; % Inhibition relative to DMSO treatment ([3]; 200 μM): 46%; inhibition at 31 µM (Arabidopsis BioDAΔMTP; [5]): 79%; inhibition at 200 µM (Arabidopsis BioDAΔMTP; [4]): 96%; inhibition at 500 µM (Arabidopsis BioDAΔMTP; [6]): 96%

Q: What does the source list for CCn1c(C)c(-c2cc(OC(F)(F)F)ccc2Cl)c(=O)c(C(=O)O)c1-c1ccc(Cl)c(Cl)c1 [Compound D, 5-[2-chloro-5-(trifluoromethoxy)phenyl]-2-(3,4-dichlorophenyl)-1-ethyl-6-methyl-4-oxo-pyridine-3-carboxylic acid]?
A: % Inhibition relative to DMSO treatment ([1]; 0.5 μM): 0%; % Inhibition relative to DMSO treatment ([1]; 5 μM): 7%; % Inhibition relative to DMSO treatment ([2]; 0.5 μM): 82%; % Inhibition relative to DMSO treatment ([2]; 5 μM): 95%; % Inhibition relative to DMSO treatment ([3]; 0.5 μM): 4%; % Inhibition relative to DMSO treatment ([3]; 5 μM): 26%; inhibition at 0.5 µM (Arabidopsis BioDAΔMTP; [4]): 95%

Q: CCOC(=O)c1nn(-c2ccc3c(c2)OC(F)(F)C(F)(F)O3)c2cccc(C(C)=O)c2c1=O [Compound A, ethyl 5-acetyl-4-oxo-1-(2,2,3,3-tetrafluoro-1,4-benzodioxin-6-yl)cinnoline-3-carboxylate] was tested. Which inhibition at 25 µM (Arabidopsis BioDAΔMTP; 25 μM, Arabidopsis (SEQ ID NO 294), spermidine in substrate mix, read-out: % Inhibition relative to DMSO treatment) did it give?
A: 96%

Q: Which results are given for CCn1c(-c2ccc(Cl)c(Cl)c2)c(C(=O)O)c(=O)c2cc(F)ccc21 [Compound M, 2-(3,4-dichlorophenyl)-1-ethyl-6-fluoro-4-oxo-quinoline-3-carboxylic acid]?
A: % Inhibition relative to DMSO treatment ([1]; 31 μM): 7%; % Inhibition relative to DMSO treatment ([1]; 500 μM): 46%; % Inhibition relative to DMSO treatment ([2]; 31 μM): 94%; % Inhibition relative to DMSO treatment ([2]; 500 μM): 93%; % Inhibition relative to DMSO treatment ([3]; 31 μM): 37%; % Inhibition relative to DMSO treatment ([3]; 500 μM): 92%; inhibition at 0.5 µM (Arabidopsis BioDAΔMTP; [4]): 45%

Q: For C[C@@H](N)COc1cccc(C(=O)O)n1.Cl.Cl [Compound E, [(1R)-2-(6-carboxypyridin-1-ium-2-yl)oxy-1-methyl-ethyl]ammonium dichloride], which inhibition at 200 µM (Arabidopsis BioDAΔMTP; [4]) is on record?
A: 96%

Reference: patent US20260226493A1, “HERBICIDE RESISTANT PLANTS” (SYNGENTA CROP PROTECTION AG, priority 2023, published 2026)
